This passage reports IC50 results from patent US11149009B2, “Fused piperidinyl bicyclic and related compounds as modulators of C5A receptor” (InflaRx GmbH, priority 2019, dated 2021).

C5a receptor, sequence (P21730 whole entry): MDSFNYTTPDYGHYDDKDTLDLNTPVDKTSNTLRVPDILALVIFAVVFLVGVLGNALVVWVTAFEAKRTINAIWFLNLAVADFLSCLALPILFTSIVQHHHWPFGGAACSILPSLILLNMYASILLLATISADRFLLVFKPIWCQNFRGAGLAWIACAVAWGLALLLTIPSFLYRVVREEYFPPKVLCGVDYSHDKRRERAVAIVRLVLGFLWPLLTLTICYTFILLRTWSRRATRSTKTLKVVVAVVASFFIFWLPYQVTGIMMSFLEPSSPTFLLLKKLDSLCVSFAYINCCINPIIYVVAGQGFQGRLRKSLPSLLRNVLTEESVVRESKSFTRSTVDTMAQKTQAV

The target of this test is C5a receptor (Homo sapiens (Human), UniProt P21730). Kind of test: Calcium mobilization assay (C5a-induced, U937 cells). It counts as cell-based. Particulars: inhibition of C5a-induced calcium mobilization. The procedure:
U937 cells (ATCC® CRL-1593.2) were cultivated in RPMI1640 medium supplemented with 10% fetal bovine serum in a standard cell culture incubator. The day before conducting the assay, Dibutyryl-cAMP (0.5 mM working concentration) was added to cell cultures. Next day, cells were spun and resuspended in RPMI 1640 to a concentration of 40,000 cells per 50 μl. 40,000 cells were plated in one well in a 96 well poly-D-lysine coated plate for two hours to allow cells to adhere. After cell adherence, cytoplasmic calcium^++ indicator (FLIPR Calcium 6 Assay Kit, Molecular Devices) was added to each well and incubated for 75 minutes at 37° C. Test compounds were diluted using a robotic liquid handler. The tips of the robotic liquid handler were changed after each mixing step. Test compounds were added into cell cultures at various concentrations (0.01 nM to 100 μM) for 15 minutes at 37° C. The cell culture plates were then incubated at room temperature for 30 minutes before being placed into Flexstation-3 plate reader (Molecular Devices). The Flexstation-3 was programmed to add recombinant C5a protein at various concentrations (1 nM to 10 nM) to cell culture plates and to monitor the change of fluorescence intensity, which correlates with cytoplasmic calcium concentration. The assay was also performed with the presence of human or animal blood components, such as human or bovine plasma or serum.
The half maximal inhibitory concentrations, i.e. IC50, were determined in biological assays, such as calcium mobilization assay. Using the calcium mobilization assay the following IC50 values were determined by the best dose-response curve fitting method. The curves were plotted using percentage inhibition of C5a-induced calcium mobilization versus various concentrations of compounds.
For orientation: Calcium assays in cells follow changes in intracellular calcium, usually with a dye or a luminescent sensor.
As for `Cc1ccc(NC(=O)[C@H]2Cc3ccccc3N(C(=O)c3c(C)cccc3F)[C@H]2c2ccc(NC3CCCC3)cc2)cc1C(F)(F)F` [INF004, (2R,3S)-2-(4-(cyclopentylamino)phenyl)-1-(2-fluoro-6-methylbenzoyl)-N-(4-methyl-3-(trifluoromethyl)phenyl)-1,2,3,4-tetrahydroquinoline-3-carboxamide], the IC50 is < 10 nM.

Consider `Cc1cccc(F)c1C(=O)N1c2ccccc2C[C@H](C(=O)Nc2ccc(CO)c(C(F)(F)F)c2)[C@@H]1c1ccc(NC2CCCC2)cc1` [INF015, (2R,3S)-2-(4-(cyclopentylamino)phenyl)-1-(2-fluoro-6-methylbenzoyl)-N-(4-(hydroxymethyl)-3-(trifluoromethyl)phenyl)-1,2,3,4-tetrahydroquinoline-3-carboxamide], for which the half-inhibitory concentration (IC50) is < 10 nM.

For `Cc1ccc(NC(=O)[C@H]2Cc3cc(F)ccc3N(C(=O)c3c(C)cccc3F)[C@H]2c2ccc(NC3CCCC3)cc2)cc1C(F)(F)F` [INF022, (2R,3S)-2-(4-(cyclopentylamino)phenyl)-6-fluoro-1-(2-fluoro-6-methylbenzoyl)-N-(4-methyl-3-(trifluoromethyl)phenyl)-1,2,3,4-tetrahydroquinoline-3-carboxamide], the IC50 is < 10 nM.

In the case of `Cc1ccc2c(c1)C[C@H](C(=O)Nc1ccc(C)c(C(F)(F)F)c1)[C@H](c1ccc(NC3CCCC3)cc1)N2C(=O)c1c(C)cccc1F` [INF023, (2R,3S)-2-(4-(cyclopentylamino)phenyl)-1-(2-fluoro-6-methylbenzoyl)-6-methyl-N-(4-methyl-3-(trifluoromethyl)phenyl)-1,2,3,4-tetrahydroquinoline-3-carboxamide], the IC50 was < 10 nM.

With `COc1ccc2c(c1)C[C@H](C(=O)Nc1ccc(C)c(C(F)(F)F)c1)[C@H](c1ccc(NC3CCCC3)cc1)N2C(=O)c1c(C)cccc1F` [INF024, (2R,3S)-2-(4-(cyclopentylamino)phenyl)-1-(2-fluoro-6-methylbenzoyl)-6-methoxy-N-(4-methyl-3-(trifluoromethyl)phenyl)-1,2,3,4-tetrahydroquinoline-3-carboxamide], the IC50 was < 10 nM.

Regarding `Cc1cccc(F)c1C(=O)N1c2ccccc2C[C@H](C(=O)Nc2ccc(O)c(C(F)(F)F)c2)[C@@H]1c1ccc(NC2CCCC2)cc1` [INF033, (2R,3S)-2-(4-(cyclopentylamino)phenyl)-1-(2-fluoro-6-methylbenzoyl)-N-(4-hydroxy-3-(trifluoromethyl)phenyl)-1,2,3,4-tetrahydroquinoline-3-carboxamide], the IC50 was < 10 nM.

Take `Cc1cccc(F)c1C(=O)N1c2ccc(F)cc2C[C@H](C(=O)Nc2ccc(CO)c(C(F)(F)F)c2)[C@@H]1c1ccc(NC2CCCC2)cc1` [INF039, (2R,3S)-2-(4-(cyclopentylamino)phenyl)-6-fluoro-1-(2-fluoro-6-methylbenzoyl)-N-(4-(hydroxymethyl)-3-(trifluoromethyl)phenyl)-1,2,3,4-tetrahydroquinoline-3-carboxamide]: the IC50 is < 10 nM.

With `Cc1cccc(F)c1C(=O)N1c2cccc(F)c2C[C@H](C(=O)Nc2ccc(CO)c(C(F)(F)F)c2)[C@@H]1c1ccc(NC2CCCC2)cc1` [INF045, (2R,3S)-2-(4-(cyclopentylamino)phenyl)-5-fluoro-1-(2-fluoro-6-methylbenzoyl)-N-(4-(hydroxymethyl)-3-(trifluoromethyl)phenyl)-1,2,3,4-tetrahydroquinoline-3-carboxamide], the IC50 is < 10 nM.

Turning to `Cc1ccc(NC(=O)[C@H]2C[C@@H](C(F)(F)F)CN(C(=O)c3c(F)cccc3F)[C@H]2c2ccc(NC3CCCC3)cc2)cc1C(F)(F)F` [INF052, (2R,3S,5R)-2-(4-(cyclopentylamino)phenyl)-1-(2,6-difluorobenzoyl)-N-(4-methyl-3-(trifluoromethyl)phenyl)-5-(trifluoromethyl)piperidine-3-carboxamide], the IC50 is < 10 nM.

On to `[2H]C1(Nc2ccc([C@H]3[C@@H](C(=O)Nc4ccc(C)c(C(F)(F)F)c4)C[C@@H](C(F)(F)F)CN3C(=O)c3c(F)cccc3F)cc2)CCCC1` [INF067, (2R,3S,5R)-2-(4-((cyclopentyl-1-d)amino)phenyl)-1-(2,6-difluorobenzoyl)-N-(4-methyl-3-(trifluoromethyl)phenyl)-5-(trifluoromethyl)piperidine-3-carboxamide], for which the IC50 is < 10 nM.

On to `O=C(Nc1ccc(O)c(C(F)(F)F)c1)[C@H]1C[C@@H](C(F)(F)F)CN(C(=O)c2c(F)cccc2F)[C@H]1c1ccc(NC2CCCC2)cc1` [INF068, (2R,3S,5R)-2-(4-(cyclopentylamino)phenyl)-1-(2,6-difluorobenzoyl)-N-(4-hydroxy-3-(trifluoromethyl)phenyl)-5-(trifluoromethyl)piperidine-3-carboxamide], for which the half-maximal inhibitory concentration (IC50) was < 10 nM.

`Cc1ccc(NC(=O)[C@H]2C[C@@H](C(F)(F)F)CN(C(=O)c3c(F)cccc3F)[C@H]2c2ccc(NC3CCCC3)cc2)cc1Cl` [INF071, (2R,3S,5R)—N-(3-chloro-4-methylphenyl)-2-(4-(cyclopentylamino)phenyl)-1-(2,6-difluorobenzoyl)-5-(trifluoromethyl)piperidine-3-carboxamide]: the IC50 is < 10 nM.

A word on the IC50: it is the concentration at which inhibition is half-maximal.
